Consider one compound from US8507471B2, “Biphenylcarboxamide derivatives as hedgehod pathway modulators” (IRM LLC, priority 2007, dated 2013).

For orientation: EC50 means the concentration needed to bring the measured effect to its halfway point.

Structures are written as SMILES.

Assay [1] has as its system lymphoma cells expressing luciferase. Description: Inhibiting Hh pathway abrogates lymphoma expansion in vivo (bioluminescence imaging). More on the design: species or system syngeneic C57BL/6 mice. To be noted: 50 mg/kg/day. Here is the method:
Stroma produced hedgehog ligands are important growth and survival factors for primary lymphoma cells under in-vitro culture conditions. Growth and expansion of lymphoma cells in-vivo is also dependent on Hh signalling. 1e6 lymphoma cells expressing luciferase were injected into syngeneic C57BL/6 mice. […] Luciferase levels were measured by bioluminescence imaging 3 times per week. […] Therefore we conclude that hedgehog pathway inhibition reduces lymphoma growth in mice.

Assay [2] has as its system basal cell carcinoma lesions (basaloid nests) in embryonic skin punches. Description: Embryonic skin punch assay (Shh-induced basaloid nests). Particulars: Mus musculus, completely blocks the basanoid formation, read-out: EC50 to block basanoid formation. Type of assay: cell-based, Ptch+/−-LacZ mice. The method, then: Compounds of the invention are tested from their ability to treat non-melanoma skin cancer, i.e. basal cell carcinoma lesions using the skin punch assay. Mouse embryos from Ptch^+/−-LacZ mice, are collected and killed at late gestation (embryonic day 17.5) and their skins excised. Circular punches (4 mm in diameter are placed in a collagen-coated Transwell (BIOCOAT cell Culture Insert, Becton Dickinson Labware, Bedford, Mass.) and cultured at the air-liquid interface, with the epidermis side facing up. The culture medium contains 5% FBS in DMEM/F12 (3:1) with added epidermal growth factor, insulin, and hydrocortisone. To induce formation of basaloid nests, punches are grown in the presence of 1-2 μg/ml Shh for 4 or more days. Effects of compounds of the invention are tested by adding at the time of Shh addition or after 6 days of Shh pretreatment. Compounds of the invention show full inhibition (preventing lesion formation) at concentrations of 1 μM or less.

Regarding `Cc1c(C(=O)Nc2ccc(N3C[C@@H](C)O[C@@H](C)C3)nc2)cccc1-c1ccc(OC(F)(F)F)cc1` [Compound 153, N-(6-((2R,6S)-2,6-dimethylmorpholino)pyridin-3-yl)-2-methyl-4′-(trifluoromethoxy)biphenyl-3-carboxamide], the “lymphoma cell expansion (full efficacy)” value in assay [1] is reported as “completely blocks lymphoma cell expansion”. For the same compound, the EC50 in assay [2] is under 200 nM.
